# Like-named read-outs stand apart in the source and are kept apart here.
# Assays:
# Type in all cases: in vivo
# armyworm = experiment: Insecticidal activity against armyworm (Airbrush spray on maize blade segments); conditions: 72 h, read-out: fatality rate against armyworm
# Experimental: (§1) The compound to be tested was dissolved by a mixed solvent of acetone/methanol (1:1), and then diluted by water containing 0.1% (wt) Tween 80 to the required concentration.
# (§2) An Airbrush spray method was adopted for the determination of the activity, with armyworm, Plutella xylostella and Chilo suppressalis as targets.
# Determination method: maize blades were cut into 2 cm (length) segments; with the pressure of Airbrush spray being 10 psi (about 0.7 kg/cm^2), both sides of each blade segment were sprayed with the amount of 0.5 ml. After dried in the shade, each segment was inoculated with 10 3rd-instar larvaes, 3 repeats for each segment. And then, the treated segments were put into an observation room (25° C., relative humidity: 60-70%) for cultivation; the number of the survivals was surveyed 1 d, 2 d and 3 d after administration, and then the death rate was calculated.
# Plutella xylostella = experiment: Insecticidal activity against Plutella xylostella (Airbrush spray on cabbage leaf discs)
# Experimental: as §1, §2
# Determination method: cabbage blades were punched into 2 cm (diameter) leaf discs by a puncher; with the pressure of Airbrush spray being 10 psi (about 0.7 kg/cm^2), both sides of each leaf disc were sprayed with the amount of 0.5 ml. After dried in the shade, each leaf disc was inoculated with 10 3rd-instar larvaes, 3 repeats for each leaf disc. And then, the treated leaf discs were put into an observation room (25° C., relative humidity: 60-70%) for cultivation; the number of the survivals was surveyed 1 d, 2 d and 3 d after administration, and then the death rate was calculated.
# Chilo suppressalis = experiment: Insecticidal activity against Chilo suppressalis (spray on rice seedlings, stems fed to larvae); conditions: Chilo suppressalis, 72 h, read-out: fatality rate against Chilo suppressalis
# Experimental: as §1, §2
# Determination method: 1) preparation of rice seedlings: rice was cultivated in small plastic cups (diameter: 4.5 cm and height: 4 cm) at a constant temperature room (temperature: 26-28° C., relative humidity: 60-80% around and illumination: 16 hL:8 hD), after the rice grew to a 4-5 leaf stage, vigorous and uniform-growth rice seedlings were selected and treated with an insecticide, 3 repeats for each treatment. 2) Preparation of pests for test: 3rd-instar larvaes of Chilo suppressalis fed continuously in the room. 3) Inoculation of pests on rice stems by spray. The whole plants of the rice seedlings were sprayed by a spray method uniformly, with the dose of 15 ml for each treatment. The blank control was treated first, and the above operation was repeated in an order of lower to higher test concentration. After sprayed, rice seedlings were placed in the shade to dry the insecticide liquor, and then stalks about 5 cm above the basal part of the stems were cut to be fed to the pests for test. Glass petri dishes (diameter: […]) were prepared, cushioned by filter paper at the bottom thereof, and subjected to water addition for moisturizing; about 20 pieces of rice stems were put in each dish and inoculated with 10 larvaes; then the petri dishes were closed by non-woven fabrics and placed in a constant temperature room for culture. The number of survivals was surveyed 3 d after administration.
smiles,measurement,setting,value
Cc1cc(C(F)(C(F)(F)F)C(F)(F)F)cc(Br)c1NC(=O)c1cccc(N(CC#N)C(=O)c2ccccc2)c1F [Compound 6.321],pest or weed control at 0.5 µg/mL,armyworm,≥ 90%
same,pest or weed control at 1 µg/mL,"Plutella xylostella; Plutella xylostella, foliar, 72 h, read-out: Fatality rate (%, 3 d after administration) 1 mg/L, Table 72, 1 mg/L, 3 d after administration",98.5%
same,pest or weed control at 10 µg/mL,"Plutella xylostella; Plutella xylostella, foliar, 72 h, read-out: Fatality rate (%, 3 d after administration) 10 mg/L, Table 71, 10 mg/L, 3 d after administration",100%
same,pest or weed control at 1 µg/mL,"Plutella xylostella; Plutella xylostella, foliar, 72 h, read-out: fatality rate against Plutella xylostella, 1 mg/L, 3 d after administration",≥ 90%
same,"Fatality rate (%, 3 d after administration) 5 mg/L","Plutella xylostella; Table 72, 5 mg/L, 3 d after administration",100%
same,pest or weed control at 40 µg/mL,Chilo suppressalis,≥ 90%

# Source: patent US11407711B2, “Benzamide compound and use thereof” (METISA BIOTECHNOLOGY CO., LTD., priority 2018, dated 2022)
